This note sets out measurements from PubChem BioAssay AID1996.

In brackets after ≈: the same amount, converted by molar mass.

The conditions of this series: buffer; pH 7.4; 200.0 µM.
Compound `CC(CN1CCN(Cc2ccccc2)CC1)c1ccccc1.O=C(O)C(=O)O` (centres undefined) came in with a solubility (kinetic) of 7.2 µg/mL. In turn, `COc1nccc(C(F)(F)F)c1C(=O)NC(=O)Nc1ccccc1` came in with a kinetic solubility of 11.5 µg/mL (≈ 33.9 µM). `Cc1csc(SCC(=O)NCc2ccccc2)n1` showed a solubility (kinetic) greater than 41.8 µg/mL.

On to `O=S(=O)(c1ccc2c(c1)CCN2)N1CCOCC1`, for which the solubility (kinetic) was greater than 40.2 µg/mL. Next, `Cc1ccc(C2NC(c3ccc(C)cc3)C(C)C(=O)C2C)cc1` (centres undefined): less than 0.7 µg/mL; `O=S(=O)(Cc1noc(-c2ccc(Cl)cc2)n1)Cc1ccco1`: 3 µg/mL (≈ 8.86 µM); `COc1ccc(CCNC2CCc3ccccc3C2)cc1` (centres undefined): 28.3 µg/mL (≈ 101 µM).

Turning to `CCn1c(C)nc2cc(N)ccc21.Cl`, the kinetic solubility worked out at 34.3 µg/mL. On to `O=C(NC(=O)N1CCC2(CC1)OCCO2)c1ccc(Cl)cc1`, for which the solubility (kinetic) is greater than 48.7 µg/mL.

With `CC(C)Cc1cc(C(=O)Nc2ccc(Br)cc2)no1`, the kinetic solubility was less than 0.3 µg/mL. The compound `CC(C)OCCCNC(=O)Nc1cccc2ccccc12` registered a solubility (kinetic) greater than 43 µg/mL.

In turn, `Cc1csc2c(N3CCC(C(=O)O)CC3)ncnc12` came in with a kinetic solubility of 36.9 µg/mL (≈ 133 µM).

`COc1cc(Cl)c(C)cc1NC(=O)CN1CCCCCC1`: the kinetic solubility is less than 0.3 µg/mL. As to `Cc1cc(C)nc(Nc2ccccc2Cl)n1.Cl`, the solubility (kinetic) worked out at 10.4 µg/mL. On to `CSc1nsc(SCC(=O)Nc2ccc(C(=O)O)cc2)n1`, for which the solubility (kinetic) was greater than 51.2 µg/mL. On to `Cc1ccccc1CC(=O)Nc1ccc2c(C)cc(=O)oc2c1`, for which the solubility (kinetic) was 2.1 µg/mL (≈ 6.83 µM). As to `Cc1c(Cl)c(=O)oc2cc(OCC(=O)N3CCCC(C)C3)ccc12` (centres undefined), the kinetic solubility was 38 µg/mL (≈ 109 µM). In the case of `CSc1nc2ccccc2c(=O)n1C1CCCCC1` it was 1 µg/mL (≈ 3.64 µM).

`Cl.Nc1ccc(CCN2CCCC2)cc1` came in with a solubility (kinetic) of 34.7 µg/mL. Compound `Cc1cc(C(=O)Nc2cccc3ccccc23)co1` registered a solubility (kinetic) of 33 µg/mL (≈ 131 µM).

`CC(C)Oc1ccc(C(=O)NCC(=O)O)cc1` showed a kinetic solubility greater than 35.6 µg/mL. Regarding `O=C(O)CCCn1c(=O)c2cccn2c2ccc(F)cc21`, the kinetic solubility was greater than 43.2 µg/mL. `CCOC(=O)c1cnc2ccccc2c1NCc1ccco1` registered a solubility (kinetic) of 11.3 µg/mL (≈ 38.1 µM). In the case of `Cc1ccc(CC(=O)NC2CCCc3ccccc32)cc1C` (centres undefined) it was 3.2 µg/mL (≈ 10.9 µM); in that of `COCCCNC(=O)c1ccccc1-c1cc(C)no1`, 32.6 µg/mL (≈ 119 µM).

`O=C(O)Cc1csc(-c2cccc(F)c2)n1` showed a kinetic solubility greater than 35.6 µg/mL. In turn, `CCCCc1ccc(NC(=O)c2cnccn2)cc1` gave a kinetic solubility of 4 µg/mL (≈ 15.7 µM). `CCn1cc(C2=NC(CC(C)C)CO2)c2ccccc21` (centres undefined) showed a kinetic solubility of 9.7 µg/mL (≈ 35.9 µM). Compared with the last compound, the solubility kinetic is about 2.4-fold higher. In the case of `O=C(NC1CCS(=O)(=O)C1)c1cccc(Br)c1` (centres undefined) it was greater than 47.7 µg/mL; in that of `CCOc1ccc(NC(=O)NC(C)c2ccc3c(c2)OCO3)cc1` (centres undefined), 1.9 µg/mL (≈ 5.79 µM).

Compound `COc1ccc(CN(C)CC(=O)Nc2c(C)cccc2C)c(OC)c1` yielded a kinetic solubility greater than 51.4 µg/mL. Consider `C=CCn1cc(/C=C2/NC(=O)NC2=O)c2ccccc21`, for which the solubility (kinetic) was 1 µg/mL (≈ 3.74 µM).

For the compound `O=C(Nc1ccc(F)cc1F)c1ccccc1NC(=O)C1CC=CCC1C(=O)O` (centres undefined), the kinetic solubility was 59.7 µg/mL (≈ 149 µM).

Turning to `Cn1nc(C(F)(F)F)c2cc(C(=O)N3CCOCC3)sc21`, the kinetic solubility is greater than 47.9 µg/mL. Next, `O=C(Nc1ccc2c(c1)OCCO2)c1ccoc1`: 35.7 µg/mL (≈ 146 µM); `COc1ccccc1C(=O)NC1CCSc2ccccc21` (centres undefined): 31.5 µg/mL (≈ 105 µM); `Cc1ccc(NC(=O)CNC(=O)Cc2cccc3ccccc23)nc1`: 11.6 µg/mL (≈ 34.8 µM).

As for `Cc1ccc(S(=O)(=O)NCCNC(=O)c2ccc(C)nc2)cc1`, the solubility (kinetic) was greater than 50 µg/mL. On to `CCOC(=O)c1cn(C2CC2)c2c(F)c(F)c(F)cc2c1=O`, for which the solubility (kinetic) came to 42.7 µg/mL (≈ 137 µM). The compound `CC(O)c1nc2ccccc2n1Cc1ccccc1` (centres undefined) had a kinetic solubility of 35.6 µg/mL (≈ 141 µM). Compound `COc1cccc2cc(-c3nc4ccccc4o3)c(=O)oc12` yielded a kinetic solubility of 1.7 µg/mL (≈ 5.8 µM). As for `Cc1ccc(NC(=S)N(Cc2ccccc2)Cc2cccs2)c(C)c1`, the solubility (kinetic) was found to be 0.8 µg/mL (≈ 2.18 µM).

With `CCCOc1cccc(C(=O)NCCNC(=O)c2ccco2)c1`, the kinetic solubility was greater than 47.5 µg/mL. For the compound `Cc1ccccc1C(=O)NCCNC(=O)c1ccccn1`, the solubility (kinetic) worked out at 39.3 µg/mL (≈ 139 µM). The compound `CN(C(=O)COC(=O)c1ccc(C#N)cc1)c1ccccc1` registered a kinetic solubility of 19.4 µg/mL (≈ 65.9 µM). `CC(=O)c1ccc2c(c1)c(C#N)c1ccccc1[n+]2[O-]` had a solubility (kinetic) of 1.7 µg/mL (≈ 6.48 µM).

Take `COc1cc2c(cc1OC)CN(CC(O)c1ccccc1)CC2` (centres undefined): the solubility (kinetic) was found to be 44.3 µg/mL (≈ 141 µM). In the case of `Br.COc1cccc(C(=O)CSc2nccn2C)c1` it was greater than 51.5 µg/mL; in that of `Cc1ccc(C)c(-n2c(C)nc3ccccc3c2=O)c1`, greater than 39.6 µg/mL.

As to `COc1ccc(Cl)cc1C(=O)O/N=C(\N)c1ccncc1`, the solubility (kinetic) worked out at 32.5 µg/mL (≈ 106 µM).

In turn, `CCc1sc(C(=O)N2CCN(c3ccc(F)cc3)CC2)cc1C` registered a solubility (kinetic) of 10.7 µg/mL (≈ 32.2 µM). Next, `O=C(O)c1cccc2c1C(=O)N(c1ccccc1)C2`: greater than 38 µg/mL; `CN(C)c1cccc(NC(=O)c2ccco2)c1`: greater than 34.5 µg/mL. `CC(CN1CCCC1)OC(=O)c1ccc(Cl)cc1.Cl` (centres undefined): the solubility (kinetic) was greater than 45.6 µg/mL. For the compound `CCN(C(=O)COc1ccccc1)C1CCCCC1`, the kinetic solubility was 37.4 µg/mL (≈ 143 µM). The compound `CCOc1ccc(NC(=O)c2ccc(NC(=O)c3ccc(NC(N)=O)cc3)cc2)cc1` showed a kinetic solubility of 2 µg/mL (≈ 4.78 µM). On to `Cc1cc2oc(C(=O)N3CCN(Cc4ccccc4)CC3)c(C)c2cc1C`, for which the solubility (kinetic) was 3.7 µg/mL (≈ 10.2 µM).

In turn, `NNC(=O)c1ccc(COCC(F)(F)C(F)F)cc1` came in with a solubility (kinetic) greater than 42 µg/mL. `CC1CC(C)CN(C(=O)COC(=O)c2ccc3c(c2)OCCO3)C1` (centres undefined) registered a kinetic solubility of 49.5 µg/mL (≈ 148 µM). `COC(=O)c1ccc(NC(=S)Nc2ccc(O)cc2)cc1` yielded a kinetic solubility of 22.3 µg/mL (≈ 73.8 µM). Next, `Cc1ccc(C(=O)Nc2ccc(C(=O)N3CCCCC3)cc2)o1`: greater than 46.9 µg/mL; `OCCNc1nc(-c2ccccc2)nc2c1oc1ccccc12`: 0.3 µg/mL (≈ 0.983 µM); `CCOC(=O)C1CCN(C(=O)c2cc3ccccc3oc2=O)CC1`: 48.4 µg/mL (≈ 147 µM). In turn, `Cn1c(SCCc2ccc([N+](=O)[O-])cc2)nccc1=O` returned a solubility (kinetic) of 25.9 µg/mL (≈ 88.9 µM). In turn, `Cc1ccc(OCC(=O)Oc2ccccc2[N+](=O)[O-])cc1` showed a solubility (kinetic) of 17.4 µg/mL (≈ 60.6 µM).

The compound `Cc1cc(C)c2c(CN3CCC(C)CC3)cc(=O)oc2c1` gave a kinetic solubility of 4.3 µg/mL (≈ 15.1 µM). For the compound `Cc1cccc(NC(=O)COC(=O)CCc2ccccc2)c1C`, the kinetic solubility was 5.9 µg/mL (≈ 18.9 µM). The solubility kinetic values of the last two compounds are within 1.5-fold of each other. In the case of `CCC(NS(=O)(=O)c1cccs1)c1ccc(C)cc1` (centres undefined) it was greater than 44.3 µg/mL; in that of `Cc1ccc(NS(=O)(=O)c2ccc(NC(=O)c3ccccc3C(=O)O)cc2)cc1C`, greater than 63.7 µg/mL; in that of `CC1=C(C)CC(C(=O)NCc2c(F)cccc2Cl)C(C(=O)O)C1` (centres undefined), greater than 51 µg/mL. `N#C/C(=C(/O)CN1CCCC1)c1nc(-c2ccccc2)cs1` came in with a solubility (kinetic) greater than 46.7 µg/mL. Turning to `Cc1ccc2[nH]c(C)c(CCNC(=O)NC3CCCCC3)c2c1`, the solubility (kinetic) was 1 µg/mL (≈ 3.19 µM). Next, `Cc1ccc(-c2[nH]c(=S)[nH]c(=O)c2C#N)cc1`: 30.8 µg/mL (≈ 127 µM); `O=C(O)CNS(=O)(=O)Cc1ccccc1`: 29 µg/mL (≈ 126 µM); `COCCn1c(N)c(C(=S)NC(=O)c2cccs2)c(=O)[nH]c1=O`: 34.6 µg/mL (≈ 97.6 µM). Next, `CCOc1ccc(S(=O)(=O)NC2CCCC2)cc1C`: greater than 42.5 µg/mL. `COCCN(C(=O)CSc1ccc2c(c1)OCCO2)c1c(N)n(CC(C)C)c(=O)[nH]c1=O` came in with a kinetic solubility greater than 69.7 µg/mL. Turning to `Cc1ccc(-n2c(C)c(C)c3c(NCCN(C)C)ncnc32)cc1`, the solubility (kinetic) worked out at 37.4 µg/mL (≈ 116 µM). Next, `CNC(=O)c1cccc(NC(=O)C(C)c2ccc3cc(OC)ccc3c2)c1` (centres undefined): 9.2 µg/mL (≈ 25.4 µM); `CCOC(=O)c1c(C)[nH]c(C)c1C(=O)COC(=O)/C=C/c1ccco1`: greater than 51.8 µg/mL. In the case of `O=C(NC(c1ccccc1)c1ccccc1)c1ccc(CO)cc1` it was 44.2 µg/mL (≈ 139 µM). In the case of `Cc1cc(C(=O)OCC(=O)NC2CCCCC2C)c2ccccc2n1` (centres undefined) it was 6.3 µg/mL (≈ 18.5 µM); in that of `Cc1cnc(C(=O)OCC(=O)c2ccc(F)cc2)cn1`, greater than 41.1 µg/mL. On to `Cc1ccccc1CN1CCc2cc([N+](=O)[O-])ccc21`, for which the solubility (kinetic) was 1.9 µg/mL (≈ 7.08 µM). With `C/C(=N\OC(=O)Nc1ccc(Cl)cc1)c1ccc(F)c(F)c1`, the solubility (kinetic) is 5.2 µg/mL (≈ 16 µM).

With `COC(=O)c1c(C)[nH]c(C(=O)CN2C(=O)C3CC=CCC3C2=O)c1C` (centres undefined), the solubility (kinetic) was greater than 51.7 µg/mL. Turning to `CC(C)NC(=S)NCc1cccs1`, the solubility (kinetic) is greater than 32.2 µg/mL. Regarding `CCOc1ccc(/C=N/OCC(=O)Nc2ccc3c(c2)OCO3)cc1`, the solubility (kinetic) turned out to be 5.2 µg/mL (≈ 15.2 µM). Compound `COc1ccc(NC(=O)[C@@H](NS(=O)(=O)c2cccc(Cl)c2)C(C)C)cc1S(=O)(=O)N1CCOCC1` gave a kinetic solubility greater than 81.9 µg/mL. As to `O=C(COc1ccc2c(c1)OCO2)Nc1cccc(F)c1`, the solubility (kinetic) came to 21.5 µg/mL (≈ 74.3 µM). In the case of `O=C(NCCc1ccc(Cl)cc1)c1cc(=O)[nH]c2ccccc12` it was 2.4 µg/mL (≈ 7.34 µM); in that of `Cc1ccc(SC(C)C(=O)N2CCN(c3ccccc3)CC2)cc1` (centres undefined), 34.9 µg/mL (≈ 102 µM). With `O=C(/C=C/Nc1nccs1)C(F)(F)Cl`, the kinetic solubility was determined as 33.6 µg/mL (≈ 141 µM). The solubility kinetic values of the last two compounds are within 1.5-fold of each other.

Regarding `CC(=O)Nc1ccc(NC(=O)Nc2cccc(Cl)c2)cc1`, the kinetic solubility was 1.4 µg/mL (≈ 4.61 µM). Compared with the last compound, the solubility kinetic is about 24-fold lower. For `COc1ccc(S(=O)(=O)Nc2cccc(F)c2)cc1C`, the kinetic solubility was greater than 44.3 µg/mL. In the case of `O=C(NCC1CCCO1)c1ccc[nH]1` (centres undefined) it was greater than 29.1 µg/mL; in that of `COc1ccc(NC(=O)CCN2C(=O)c3ccccc3C2=O)c(OC)c1`, 21.8 µg/mL (≈ 61.5 µM). Consider `O=C(NCCc1ccccc1)c1cc([N+](=O)[O-])ccc1N1CCOCC1`, for which the kinetic solubility was determined as 53.2 µg/mL (≈ 150 µM).

As to `CCN(CC)C(=O)c1cc2c(=O)n3cccc(C)c3nc2s1`, the solubility (kinetic) was found to be 43.4 µg/mL (≈ 138 µM). This solubility kinetic and that of the compound before are within 1.5-fold of each other.

In the case of `COc1ccccc1/C=C/C(=O)OCC(=O)NCc1ccc2c(c1)OCO2`, the kinetic solubility amounted to 6.3 µg/mL (≈ 17.1 µM). For the compound `O=C(NCCc1ccccc1)C1CCCN(c2cnccn2)C1` (centres undefined), the solubility (kinetic) was found to be 45.9 µg/mL (≈ 148 µM). Next, `Cc1c(C(=O)Nc2ccc(Nc3ccccc3)cc2)cccc1[N+](=O)[O-]`: 1.3 µg/mL (≈ 3.74 µM); `Cc1ccc(S(=O)(=O)NC(Cc2ccccc2)C(=O)O)cc1C` (centres undefined): greater than 50 µg/mL; `CC(=O)c1sc(-c2ccccc2)nc1C`: 13.9 µg/mL (≈ 64 µM).

By solubility (kinetic) is commonly meant the concentration staying in solution when a stock, usually in DMSO, is diluted into the medium.
